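96-well plates; 48 h exposure; 5 concentrations. Endpoints by linear interpolation between flanking doses. Not reached: highest tested concentration assigned. Here, GI50 denotes the concentration required for 50% inhibition of growth.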 Active and inactive are the calls of the source. No stated cut-off is given here; in the data, active = GI50 up to about 1.1 µM and inactive = higher.
What was measured:
Test in all cases: NCI anticancer screen, dose series, 48 h
[1] = test system: 786-0
[2] = test system: CAKI-1
[3] = test system: CCRF-CEM
[4] = test system: HL-60
[5] = test system: HT-29
[6] = test system: KM12
[7] = test system: M14
[8] = test system: NCI-H23
[9] = test system: NCI-H460
[10] = test system: NCI-H522
[11] = test system: OVCAR-4
[12] = test system: OVCAR-5
[13] = test system: SK-MEL-28
[14] = test system: SK-OV-3
[15] = test system: SR
[16] = test system: SW-620
[17] = test system: UO-31
[18] = test system: HCC 2998
[19] = test system: TK-10

Row | Structure (SMILES) | GI50 [1] | GI50 [2] | GI50 [3] | GI50 [4] | GI50 [5] | GI50 [6] | GI50 [7] | GI50 [8] | GI50 [9] | GI50 [10] | GI50 [11] | GI50 [12] | GI50 [13] | GI50 [14] | GI50 [15] | GI50 [16] | GI50 [17] | GI50 [18] | GI50 [19]
1 | CC(=O)OCC(OC(C)=O)C(OC(C)=O)C(OC(C)=O)C(=O)CNn1c(-c2ccccc2Cl)nc2ccc(Br)cc2c1=O (stereo not given) | > 100 µM (inactive) | 38.3 µM (inactive) | 42.5 µM (inactive) | 23.8 µM (inactive) | 96.4 µM (inactive) | > 100 µM (inactive) | > 100 µM (inactive) | > 100 µM (inactive) | > 100 µM (inactive) | 33.2 µM (inactive) | 87.1 µM (inactive) | > 100 µM (inactive) | > 100 µM (inactive) | > 100 µM (inactive) | 43.8 µM (inactive) | > 100 µM (inactive) | 85.5 µM (inactive) | – | –
2 | CN[C@H](C)[C@@H](OC)c1ccccc1 | > 100 µM (inactive) | > 100 µM (inactive) | > 100 µM (inactive) | > 100 µM (inactive) | > 100 µM (inactive) | > 100 µM (inactive) | > 100 µM (inactive) | – | > 100 µM (inactive) | – | > 100 µM (inactive) | > 100 µM (inactive) | > 100 µM (inactive) | > 100 µM (inactive) | – | > 100 µM (inactive) | > 100 µM (inactive) | > 100 µM (inactive) | > 100 µM (inactive)
3 | CN(C)CCNC(=O)c1cccc2c(Nc3ccc(S(=O)(=O)N=C(N)N)cc3)c3ccccc3nc12 | 18 µM (inactive) | – | 2.57 µM (inactive) | 0.684 µM (active) | 16.3 µM (inactive) | 31.3 µM (inactive) | 30.8 µM (inactive) | 29 µM (inactive) | 3.17 µM (inactive) | 3.97 µM (inactive) | 13.5 µM (inactive) | 28.4 µM (inactive) | 24.5 µM (inactive) | – | 2.61 µM (inactive) | 7.23 µM (inactive) | 10 µM (inactive) | – | 75.9 µM (inactive)
4 | CC(=O)NC(CCCCNCc1ccccc1)C(=O)NCc1ccccc1 (stereo not given) | > 100 µM (inactive) | > 100 µM (inactive) | > 100 µM (inactive) | – | > 100 µM (inactive) | > 100 µM (inactive) | > 100 µM (inactive) | > 100 µM (inactive) | > 100 µM (inactive) | > 100 µM (inactive) | > 100 µM (inactive) | > 100 µM (inactive) | > 100 µM (inactive) | > 100 µM (inactive) | – | > 100 µM (inactive) | > 100 µM (inactive) | > 100 µM (inactive) | > 100 µM (inactive)
5 | COC1=CC(=O)C2C(C1=O)[C@@H]1c3ccccc3OC[C@H]21 (stereo not given in full) | > 100 µM (inactive) | > 100 µM (inactive) | > 100 µM (inactive) | > 100 µM (inactive) | > 100 µM (inactive) | > 100 µM (inactive) | > 100 µM (inactive) | > 100 µM (inactive) | > 100 µM (inactive) | 49.9 µM (inactive) | > 100 µM (inactive) | > 100 µM (inactive) | > 100 µM (inactive) | > 100 µM (inactive) | – | > 100 µM (inactive) | > 100 µM (inactive) | > 100 µM (inactive) | > 100 µM (inactive)
6 | CC(=O)OC1(C#N)CC2OC1C1NC21 (stereo not given) | > 100 µM (inactive) | > 100 µM (inactive) | > 100 µM (inactive) | > 100 µM (inactive) | – | – | > 100 µM (inactive) | > 100 µM (inactive) | > 100 µM (inactive) | > 100 µM (inactive) | > 100 µM (inactive) | > 100 µM (inactive) | > 100 µM (inactive) | > 100 µM (inactive) | – | > 100 µM (inactive) | > 100 µM (inactive) | > 100 µM (inactive) | > 100 µM (inactive)
7 | N=C(N)NS(=O)(=O)c1ccc(NCc2c3ccccc3[n+]([O-])c3ccccc23)cc1 | 19.7 µM (inactive) | 21.3 µM (inactive) | 5.64 µM (inactive) | 6.08 µM (inactive) | 41.5 µM (inactive) | 30.4 µM (inactive) | 46.6 µM (inactive) | 21.8 µM (inactive) | 3.43 µM (inactive) | 29.9 µM (inactive) | 23.8 µM (inactive) | > 100 µM (inactive) | 20.4 µM (inactive) | > 100 µM (inactive) | – | 16.4 µM (inactive) | 15.2 µM (inactive) | 13.4 µM (inactive) | > 100 µM (inactive)
8 | N#CC(C(=N/O)/C(=N/O)C(C#N)c1ccc(Cl)cc1)c1ccc(Cl)cc1 (stereo not given) | > 100 µM (inactive) | 42.9 µM (inactive) | – | – | > 100 µM (inactive) | > 100 µM (inactive) | > 100 µM (inactive) | 92.5 µM (inactive) | > 100 µM (inactive) | – | > 100 µM (inactive) | > 100 µM (inactive) | > 100 µM (inactive) | > 100 µM (inactive) | – | 76.7 µM (inactive) | > 100 µM (inactive) | 84.1 µM (inactive) | > 100 µM (inactive)
9 | CCc1ccccc1NC(=O)C1=C(C)NC(C)=C(C(=O)Nc2ccccc2CC)C1c1ccc2c(c1)OCO2 | 30.4 µM (inactive) | 25.2 µM (inactive) | 19.5 µM (inactive) | 16.9 µM (inactive) | 31.9 µM (inactive) | 19.2 µM (inactive) | 26.2 µM (inactive) | 31.5 µM (inactive) | 34.1 µM (inactive) | 24.1 µM (inactive) | 23.2 µM (inactive) | 27.1 µM (inactive) | 32.6 µM (inactive) | 30.2 µM (inactive) | – | 28.9 µM (inactive) | 18.5 µM (inactive) | 15.1 µM (inactive) | 47.6 µM (inactive)
10 | CN(C)c1[se]nc2c1c(=O)n(C)c(=O)n2C | > 100 µM (inactive) | > 100 µM (inactive) | > 100 µM (inactive) | > 100 µM (inactive) | > 100 µM (inactive) | > 100 µM (inactive) | – | > 100 µM (inactive) | > 100 µM (inactive) | > 100 µM (inactive) | > 100 µM (inactive) | > 100 µM (inactive) | > 100 µM (inactive) | > 100 µM (inactive) | – | > 100 µM (inactive) | > 100 µM (inactive) | > 100 µM (inactive) | > 100 µM (inactive)
11 | Oc1cccnc1/C=N/OCc1ccccc1 | > 100 µM (inactive) | > 100 µM (inactive) | > 100 µM (inactive) | > 100 µM (inactive) | > 100 µM (inactive) | > 100 µM (inactive) | > 100 µM (inactive) | – | > 100 µM (inactive) | > 100 µM (inactive) | – | > 100 µM (inactive) | – | > 100 µM (inactive) | – | > 100 µM (inactive) | 68.2 µM (inactive) | > 100 µM (inactive) | > 100 µM (inactive)
12 | O=C(CCc1nnc2s/c(=C\c3ccccc3[N+](=O)[O-])c(=O)n12)Nc1cc(Cl)c(Cl)cc1Cl | 17.1 µM (inactive) | – | 24.4 µM (inactive) | – | 35.2 µM (inactive) | 19.5 µM (inactive) | 32.5 µM (inactive) | 33.2 µM (inactive) | 27.4 µM (inactive) | 38.3 µM (inactive) | 14.7 µM (inactive) | 34.1 µM (inactive) | 92.9 µM (inactive) | 56.6 µM (inactive) | – | > 10 µM (inactive) | 31.6 µM (inactive) | 38.5 µM (inactive) | 37.1 µM (inactive)
13 | Cc1ccc(S(=O)(=O)NC2CCCCO2)cc1 (stereo not given) | > 100 µM (inactive) | > 100 µM (inactive) | > 100 µM (inactive) | – | > 100 µM (inactive) | > 100 µM (inactive) | > 100 µM (inactive) | > 100 µM (inactive) | > 100 µM (inactive) | > 100 µM (inactive) | > 100 µM (inactive) | > 100 µM (inactive) | > 100 µM (inactive) | > 100 µM (inactive) | – | > 100 µM (inactive) | > 100 µM (inactive) | > 100 µM (inactive) | –
14 | O=C(NC1CCC[C@H]1OC(=O)c1ccccc1)c1ccccc1 (stereo not given in full) | > 100 µM (inactive) | 85.7 µM (inactive) | > 100 µM (inactive) | 32.2 µM (inactive) | 39.7 µM (inactive) | 69.8 µM (inactive) | > 100 µM (inactive) | 31 µM (inactive) | > 100 µM (inactive) | – | 30.8 µM (inactive) | > 100 µM (inactive) | > 100 µM (inactive) | 43.2 µM (inactive) | 47.2 µM (inactive) | > 100 µM (inactive) | 16.1 µM (inactive) | – | > 100 µM (inactive)
15 | Nc1ccccc1S(=O)(=O)N(CC(=O)O)c1ccccc1 | > 100 µM (inactive) | > 100 µM (inactive) | > 100 µM (inactive) | > 100 µM (inactive) | > 100 µM (inactive) | – | > 100 µM (inactive) | > 100 µM (inactive) | > 100 µM (inactive) | > 100 µM (inactive) | > 100 µM (inactive) | > 100 µM (inactive) | > 100 µM (inactive) | > 100 µM (inactive) | – | > 100 µM (inactive) | > 100 µM (inactive) | – | > 100 µM (inactive)
16 | Cc1ccc(C)c(NC(=O)c2cccc([N+](=O)[O-])c2O)c1 | 44.1 µM (inactive) | 30.8 µM (inactive) | > 100 µM (inactive) | > 100 µM (inactive) | 26.1 µM (inactive) | 23.7 µM (inactive) | 55.6 µM (inactive) | 16.3 µM (inactive) | 20.9 µM (inactive) | 23.3 µM (inactive) | 13.2 µM (inactive) | 87.7 µM (inactive) | 27.1 µM (inactive) | 29.9 µM (inactive) | – | 37.6 µM (inactive) | 16.5 µM (inactive) | 28.3 µM (inactive) | –
